According to patent US3985766A, “Bis-imidazolyl-bisphenylmethane and salts thereof” (Bayer Aktiengesellschaft, priority 1968, dated 1976):

These compounds were tested on Trichophyton mentagrophytes (assay: effectiveness in vitro against human-pathogenic fungi (fungistatic)). Details: Milieu d'epreuve according to Sabouraud, 28° C.
Format: cell-based
Description: I. effectiveness in vitro against human-pathogenic fungi
1. Trichophyton mentagrophytes:
The test medium was Milieu d'epreuve according to Sabouraud, incubation temperature: 28° C.

MIC | SMILES
< 40 µg/mL | N#Cc1ccc(C(c2ccccc2)(n2ccnc2)n2ccnc2)cc1 [compound g), bis-imidazolyl-4-cyanophenyl-phenylmethane]
< 4 µg/mL | Clc1cccc(C(c2ccccc2)(n2ccnc2)n2ccnc2)c1 [compound f), bis-imidazolyl-3-chlorophenyl-phenylmethane]
< 4 µg/mL | Clc1ccccc1C(c1ccccc1)(n1ccnc1)n1ccnc1 [compound e), bis-imidazolyl-2-chlorophenyl-phenylmethane]
< 4 µg/mL | c1ccc(C(c2ccccc2)(n2ccnc2)n2ccnc2)cc1 [compound a), bis-imidazolyl-bis-phenylmethane]
< 4 µg/mL | Fc1ccc(C(c2ccccc2)(n2ccnc2)n2ccnc2)cc1 [compound c), bis-imidazolyl-4-fluorophenyl-phenylmethane]
< 4 µg/mL | Clc1ccc(C(c2ccccc2)(n2ccnc2)n2ccnc2)cc1 [compound b), bis-imidazolyl-4-chlorophenyl-phenylmethane]
< 4 µg/mL | Fc1ccc(C(c2ccccc2F)(n2ccnc2)n2ccnc2)cc1 [compound d), bis-imidazolyl-2,4'-difluoro-diphenylmethane]
